Entries after “also recorded” stand apart in the source; their conditions may differ. Where two headings read alike, the source gives them in different places.

Data on three substances can be found in patent US20060229276A1, “Use of glycosoaminoglycans for the prevention and treatment of sepsis” (priority 2004, published 2006).

The subject of one data set is S. aureus strain K2. The data set is described as follows: S. aureus strain K2-induced sepsis in mice (survival, weight, clinical appearance). The conditions noted are these: for survival versus PBS control: 20 μg/mouse s.c. On the procedure:
FIGS. 5A-B show the dose effect of dermatan sulfate on the survival of mice infected with a […] dose S. aureus. S. aureus K2 was grown to log phase and set via a nephelometer to an LD60-80% (30 million cfu per mouse in FIG. 5A; 35 million cfu per mouse in FIG. 5B). Balb/c mice were infected intravenously (0.5 ml) on day zero. Animals were then inoculated subcutaneously with low molecular weight heparin or dermatan sulfate (20 μg/mouse) at two hour and subsequently every twenty-four hours. Control group mice were injected with PBS. Clinical appearance and weight was recorded daily.
FIGS. 6A-B show the dose effect of dermatan sulfate (DS) on mice infected with S. aureus strain K2. S. aureus strain K2 was grown to log phase and set via a nephelometer to a lethal concentration of 40 million cfu per mouse. Balb/c mice were infected intravenously with 40 m cfu's of S. aureus K2. Treatment groups were injected subcutaneously with increasing doses of dermatan sulfate (0.1 to 12.5 mg/kg body weight or 2 to 250 μg of dermatan sulfate) at two hour and subsequently every twenty-four hours. Control group mice were injected subcutaneously with PBS. Clinical appearance and weight were recorded daily. […] In FIG. 6A, n=15 in PBS and n=10 for all doses of dermatan sulfate and in FIG. 6B, n=10 for both the doses of dermatan sulfate.
FIGS. 7A-B show the dose effect of dermatan sulfate (DS) on mice infected with S. aureus strain K2. S. aureus strain K2 was grown to log phase and set via a nephelometer to a lethal concentration of 40 million cfu per mouse. Balb/c mice were infected intravenously with 40 m cfu's of S. aureus K2 on day 0. Treatment groups were injected subcutaneously with increasing doses of dermatan sulfate (0.025 to 25 mg/kg body weight or 0.5 to 500 μg of dermatan sulfate) at two hour and subsequently every twenty-four hours. Control group mice were injected subcutaneously with PBS. Clinical appearance and weight were recorded daily.

Data set [1] concerns intrinsic pathway of coagulation. The data set can be described thus: Partial thromboplastin time in plasma of S. aureus K2-infected mice. The class given is in vivo, Balb/c mice. The conditions noted are these: 48 hours after infection. How it is done: (§1) FIGS. 8A-B show the effect of dermatan sulfate (DS) on the prothrombin time (FIG. 8A) and partial thromboplastin time (FIG. 8B) of mice treated with dermatan sulfate after the onset of S.aureus-induced sepsis. […] Control group mice were injected subcutaneously with PBS or dermatan sulfate (50 or 500 μg dermatan sulfate per mouse per day). Mice were bled at 48 hours after infection via tail vein. Blood collected in 0.12 M sodium citrate in a 9:1 ratio of blood to citrate. Samples were centrifuged and plasma collected and frozen at −20° C. until use. Plasmas were diluted 1:3 in Owrens buffer for analysis. Prothrombin time (PT) and partial thromboplastin time (PTT) were determined utilizing an XM coagulometer according to manufacturer's instructions.
The effect of dermatan sulfate on the intrinsic pathway of coagulation was determined by measuring the active partial thromboplastin time. Plasma samples from S.aureus infected mice was prepared as described in example 7. Partial thromboplastin time (PTT) was determined utilizing an XM coagulometer according to the manufacturer's instructions.

A further data set concerns Fibrinogen. The data set can be described thus: Fibrinogen levels in plasma of S. aureus K2-infected mice. The class given is in vivo, Balb/c mice. The note with it: 50-500 μg/day s.c.; 48 hours after infection. On the procedure:
(§2) Control group mice were injected subcutaneously with PBS or dermatan sulfate (50 or 500 μg dermatan sulfate per mouse per day). Mice were bled at 48 hours after infection via tail vein. Blood collected in 0.12 M sodium citrate in a 9:1 ratio of blood to citrate. Samples were centrifuged and plasma collected and frozen at −20° C. until use. Plasmas were diluted 1:9 in Owrens buffer for analysis. Fibrinogen levels were determined utilizing control standards as measured by an XM coagulometer according to manufacturer's instructions.
Plasma samples from S.aureus infected mice were prepared as described in example 7. Fibrinogen levels were determined utilizing control standards using an XM coagulometer according to manufacturer's instructions.

For another data set, the system named is protein C. The data set can be described thus: Protein C levels in plasma of S. aureus K2-infected mice. The class given is in vivo, Balb/c mice. The conditions noted are these: 48 hours. On the procedure: as §2, with “Balb/c mice were infected intravenously with 40 million cfu's of S. aureus K2 on day zero. […] Control” for “Control”, “Protein C” for “Fibrinogen”, “as percent levels based on” for “determined utilizing control”, “and its ability to prolong partial thromboplastin time. Clotting assay was evaluated using” for “as measured by”
Plasma samples from S.aureus infected mice were prepared as described in Example 7. Protein C in the plasma was determined as percent levels based on standards and their ability to prolong partial thromboplastin time. Clotting assay was evaluated using an XM coagulometer according to manufacturer's instructions.

Data set [2] in a line: Toxicity of high dose dermatan sulfate in non infected control mice. The class given is in vivo. The conditions noted are these: 500 μg/day. How it is done:
A very high dose of approximately 25 mg/kg body weight is detrimental to the infected mice after the onset of sepsis (FIG. 7A). […] But, a high dose of dermatan sulfate was non-toxic to non infected control mice treated with 500 μg/day of dermatan sulfate.

The test system of data set [3] is extrinsic pathway of coagulation. The data set can be described thus: Prothrombin time in plasma of S. aureus K2-infected mice. The class given is in vivo, Balb/c mice. The note with it: 48 hours after infection. How it is done:
as §1
To ascertain the physiological pathway that is modulated by dermatan sulfate, coagulation profiles of mice treated with low and high concentrations of the compound in the context of S. aureus-induced sepsis was assessed. The extrinsic pathway of coagulation was first evaluated by measuring the prothrombin time (PT) in the plasma of mice forty eight hours after infection with S. aureus and treatment with dermatan sulfate. […] Prothrombin time (PT) was determined utilizing an XM coagulometer according to the manufacturer's instructions.

For data set [4] the following is noted: in vivo, cited from earlier work.
For a further data set, the system named is S. aureus. The class given is in vivo, mice. The conditions noted are these: 100 or 50 μg per mouse. On the procedure: The therapeutic index of low molecular weight heparin was also evaluated by using several-fold concentrations in excess of the clinical dose (1 mg/kg or 20 μg/mouse). […] These adverse effects included hematuria, subcutaneous hematomas, and bleeding at the site of injection. The majority of the mice that died in the low molecular weight heparin group were documented with at least one episode of bleeding. […] Insight into the actual cause of bleeding can be gained by examining the coagulation profiles.

The next data set has as its system S. aureus strain CYL574. The data set is described as follows: S. aureus strain CYL574-induced septic death in mice (survival). The class given is in vivo, Balb/c mice. On the procedure: Mice in control group were injected intraperitoneally with PBS.
Experiments evaluating the effects of low molecular weight heparin in preventing mortality and/or prolonging survival were conducted in an animal model of S. aureus-induced septic death.

[5] abbreviates: 30 million cfu K2, FIG. 5A, n=15.
[6] abbreviates: 35 million cfu K2, FIG. 5B, n=20.
The mark [7] stands for this setting: infected mice treated with 50 or 500 μg per mouse s.c.

As for chondroitin sulfate A, in the data set on S. aureus strain K2 (s.c., continued daily high doses), the “effect of continued daily high doses in infected mice” value was “detrimental”. Also, the “survival as compared to infected mice treated with PBS” value with S. aureus strain K2 (s.c., greater than 10 mg/kg body weight or greater than 200 μg per mouse, FIG. 4) is on record as “prolonged survival”. In addition, the survival result in the data set with S. aureus strain K2 (s.c., very high doses >100 mg/kg body weight, first days after onset of sepsis) is “augmented survival”.
Take dermatan sulfate: the “survival versus PBS control” value in the data set with S. aureus strain K2 (setting [5]) is “substantial survival rate”; in the data set on S. aureus strain K2 (setting [6]) it was “dramatic survival rate”. The clinical state result in the data set on S. aureus strain K2 (500 μg/day s.c., first twenty four to forty eight hours) was “did clinically well”. In addition, the “effect of very high dose on infected mice (survival)” value in the data set on S. aureus strain K2 (approximately 25 mg/kg body weight, 500 μg/day s.c., FIG. 7A) is “detrimental; also recorded: poor survival”. Also, in the data set with S. aureus strain K2 (higher-survival dose versus lower doses, FIG. 6B), the “weight of surviving animals” value is given as “substantially lost more weight”. Moreover, in the data set on S. aureus strain K2 (s.c., high doses >1 mg/Kg versus <1 mg/Kg, FIGS. 6A-7B), the “protection, high versus lower doses” value is listed as “more protective than lower doses”. In the data set on S. aureus strain K2 (tapering from 16 mg/kg, halved every day to approximately 0.025 mg/Kg on day 13, FIG. 7B), the “survival rates with tapered dose” value is recorded as “optimal survival rates”. Also, in data set [1] (50 μg/day (low dose) s.c.), the “partial thromboplastin time as compared to infected PBS treated mice” value is recorded as “decrease the partial throboplastin time; also recorded: slight decrease”. The “partial thromboplastin time as compared to PBS treated infected mice” value in [1] (500 μg/day s.c.) is given as “significantly prolonged”. The partial thromboplastin time result in [1] (setting [7]) is listed as “prolonged partial thromboplastin time”. Besides, the “fibrinogen levels as compared to infected PBS treated mice” value in the data set with Fibrinogen was “did not exhibit any significant difference”. Besides, the “protein C levels” value in the data set with protein C (50 μg/day s.c. (low doses, <10 mg/Kg)) is “decrease protein C levels; also recorded: broad range of protein c levels that were higher and lower”; in the data set on protein C (500 μg/day s.c. (high levels, >20 mg/kg), 20 mg/kg) it was “increase plasma C levels; also recorded: dramatically increase protein C levels”. Further, in data set [2], the “toxicity in non infected control mice” value is reported as “non-toxic”. In data set [3] (500 μg/day (high dose) s.c.), the “prothrombin time as compared to infected PBS treated mice” value was “increase the prothrombin time; also recorded: significant increase in prothrombin time”. For the same substance, the prothrombin time entry in [3] (setting [7]) was “contracted prothrombin times”.
Regarding low molecular weight heparin, the figures for the “survival versus PBS control” value in the data set with S. aureus strain K2 (setting [5]) and in the data set with S. aureus strain K2 (setting [6]) were “higher rate a survival than the control group” and “higher survival rate than the PBS-treated mice”, respectively. Moreover, the survival rate was 70% in the data set with S. aureus strain K2 (1 mg/kg i.p., 72 hr, supra-lethal dose K2, PBS control 20%); 60% in the data set with S. aureus strain K2 (1 mg/kg i.p., 96 hr, supra-lethal dose K2, PBS control 0%, p=0.01); 22.2% in the data set with S. aureus strain K2 (5 mg/kg i.p., 96 hours after infection, PBS control 0%); 92.8% in the data set on S. aureus strain CYL574 (high dose 5 mg/kg i.p., after infection, p=0.0017 versus control); 66.7% in the data set with S. aureus strain CYL574 (prophylaxis dose 1 mg/kg i.p., 14 days after infection, PBS control 33.3%). Moreover, in the data set with S. aureus strain K2 (s.c., approximately <0.5 mg/kg per day compared with >1 mg/kg per day, FIG. 3), the “survival, low versus high doses” value is reported as “increased survival”. The plasma half-life in data set [4] (iv) was 2 to 4 h; in [4] (sc), 3 to 6 h. In addition, the “plasma half-life relative to unfractionated heparin” value in data set [4] is reported as 2-4 times. Moreover, the “survival rates as compared to control mice treated with PBS” value in the data set on S. aureus (data not shown) is given as “lower survival rates”. Further, the “adverse effects (bleeding)” value with S. aureus (high doses, infected mice) was “signs of bleeding after only 48 hr”.
